Activity calls are given as the source filed them. The rule behind the calls is not given here.
What was measured:
HCC827 = assay: Antiproliferative activity against human HCC827 cells assessed as cell growth inhibition incubated for 3 days by CCK-8 assay; format: functional; details: HCC827, 72 h, time 3 day
[1] = test system: von Hippel-Lindau disease tumor suppressor/Epidermal growth factor receptor (Homo sapiens), P00533+P40337 [UNDEFINED MUTATION]; assay: PROTAC activity at VHL/EGFR Del19 mutant in human HCC827 cells assessed as EGFR degradation treated after 8 hrs under serum starvation condition at 10 to 1000 nM measured after 16 hrs by Western blotting analysis; format: cell-based; details: dose 10-1000 nM
OVCAR-8 = assay: Antiproliferative activity against human OVCAR-8 cells expressing wild type EGFR assessed as cell growth inhibition at 1 uM in presence of pictilisib; format: functional, cell-based
NCI-H1299 = assay: Antiproliferative activity against human NCI-H1299 cells expressing wild type EGFR assessed as cell growth inhibition at 1 uM in presence of pictilisib; format: functional, cell-based
[2] = test system: Protein cereblon/Epidermal growth factor receptor (Homo sapiens), P00533+Q96SW2 [UNDEFINED MUTATION]; assay: PROTAC activity at CRBN/EGFR Del19 mutant in human HCC827 cells assessed as EGFR degradation treated after 8 hrs under serum starvation condition at 100 nM measured after 16 hrs by Western blotting analysis; format: cell-based
[3] = test system: Protein cereblon/Epidermal growth factor receptor (Homo sapiens), P00533+Q96SW2 [UNDEFINED MUTATION]; assay: PROTAC activity at CRBN/EGFR Del19 mutant in human HCC827 cells assessed as EGFR degradation treated after 8 hrs under serum starvation condition at 1 uM measured after 16 hrs by Western blotting analysis; format: cell-based
[4] = target: Epidermal growth factor receptor (Homo sapiens, UniProt P00533); assay: Binding affinity to human wild type partial length EGFR (R669 to V1011 residues) expressed in bacterial expression system assessed as immobilized ligand binding by competitive binding assay
[5] = target: Epidermal growth factor receptor (Homo sapiens, UniProt P00533, L858R); assay: Binding affinity to human partial length EGFR (R669 to V1011 residues) L858R mutant expressed in bacterial expression system assessed as immobilized ligand binding by competitive binding assay
[6] = target: T1, von Hippel-Lindau disease tumor suppressor/Epidermal growth factor receptor (Homo sapiens, UniProt P00533+P40337); assay: PROTAC activity at VHL/EGFR Del19 mutant in human HCC827 cells; format: cell-based
[7] = target: T1, von Hippel-Lindau disease tumor suppressor/Epidermal growth factor receptor; assay: PROTAC activity at VHL/wild type EGFR in human OVCAR-8 cells assessed as EGFR degradation measured after 24 hrs by Immunoblotting analysis; format: cell-based
Target sequence in this assay (P00533 whole entry): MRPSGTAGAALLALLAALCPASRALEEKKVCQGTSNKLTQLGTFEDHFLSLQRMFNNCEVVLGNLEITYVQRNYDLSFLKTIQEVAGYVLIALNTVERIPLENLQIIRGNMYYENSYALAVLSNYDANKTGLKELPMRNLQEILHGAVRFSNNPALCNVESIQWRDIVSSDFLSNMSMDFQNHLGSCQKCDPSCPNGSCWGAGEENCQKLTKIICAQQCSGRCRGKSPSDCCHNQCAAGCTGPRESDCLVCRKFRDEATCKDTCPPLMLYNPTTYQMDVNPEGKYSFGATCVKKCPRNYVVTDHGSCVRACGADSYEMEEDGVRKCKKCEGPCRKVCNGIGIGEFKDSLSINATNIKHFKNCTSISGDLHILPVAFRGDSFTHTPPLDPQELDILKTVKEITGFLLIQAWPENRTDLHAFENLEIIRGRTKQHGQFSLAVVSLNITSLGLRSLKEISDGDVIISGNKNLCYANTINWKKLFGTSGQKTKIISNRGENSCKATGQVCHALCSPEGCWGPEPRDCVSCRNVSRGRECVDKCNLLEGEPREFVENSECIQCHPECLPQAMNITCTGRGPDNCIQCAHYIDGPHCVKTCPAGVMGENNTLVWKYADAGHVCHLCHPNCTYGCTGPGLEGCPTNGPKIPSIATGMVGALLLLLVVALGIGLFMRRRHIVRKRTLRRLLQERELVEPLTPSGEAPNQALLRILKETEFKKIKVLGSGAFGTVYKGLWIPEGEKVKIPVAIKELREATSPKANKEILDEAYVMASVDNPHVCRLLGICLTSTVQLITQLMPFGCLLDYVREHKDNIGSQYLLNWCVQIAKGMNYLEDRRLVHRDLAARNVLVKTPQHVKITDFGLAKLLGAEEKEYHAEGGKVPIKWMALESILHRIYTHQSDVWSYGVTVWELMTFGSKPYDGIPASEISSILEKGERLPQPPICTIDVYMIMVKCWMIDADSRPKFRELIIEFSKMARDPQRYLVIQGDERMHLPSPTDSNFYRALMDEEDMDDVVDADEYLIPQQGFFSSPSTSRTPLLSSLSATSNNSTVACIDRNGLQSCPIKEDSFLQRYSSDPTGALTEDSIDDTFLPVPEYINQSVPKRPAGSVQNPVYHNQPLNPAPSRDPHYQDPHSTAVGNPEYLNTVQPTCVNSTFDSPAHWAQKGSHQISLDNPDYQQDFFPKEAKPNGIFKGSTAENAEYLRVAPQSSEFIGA
Target sequence in this assay (P40337 whole entry): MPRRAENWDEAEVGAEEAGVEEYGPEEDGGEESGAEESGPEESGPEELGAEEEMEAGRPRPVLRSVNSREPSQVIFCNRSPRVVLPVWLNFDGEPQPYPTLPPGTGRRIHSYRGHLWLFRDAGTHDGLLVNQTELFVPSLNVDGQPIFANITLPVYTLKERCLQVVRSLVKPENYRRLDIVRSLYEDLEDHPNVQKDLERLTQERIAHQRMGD

Chain of von Hippel-Lindau disease tumor suppressor/Epidermal growth factor receptor (Homo sapiens), P00533+P40337 [UNDEFINED MUTATION] (P00533 whole entry, looked up, stated change not applied): as the sequence (P00533 whole entry) above
Chain of von Hippel-Lindau disease tumor suppressor/Epidermal growth factor receptor (Homo sapiens), P00533+P40337 [UNDEFINED MUTATION] (P40337 whole entry, looked up, stated change not applied): as the sequence (P40337 whole entry) above
Chain of Protein cereblon/Epidermal growth factor receptor (Homo sapiens), P00533+Q96SW2 [UNDEFINED MUTATION] (P00533 whole entry, looked up, stated change not applied, the tested form may be a part): as the sequence (P00533 whole entry) above
Chain of Protein cereblon/Epidermal growth factor receptor (Homo sapiens), P00533+Q96SW2 [UNDEFINED MUTATION] (Q96SW2 whole entry, looked up, stated change not applied, the tested form may be a part): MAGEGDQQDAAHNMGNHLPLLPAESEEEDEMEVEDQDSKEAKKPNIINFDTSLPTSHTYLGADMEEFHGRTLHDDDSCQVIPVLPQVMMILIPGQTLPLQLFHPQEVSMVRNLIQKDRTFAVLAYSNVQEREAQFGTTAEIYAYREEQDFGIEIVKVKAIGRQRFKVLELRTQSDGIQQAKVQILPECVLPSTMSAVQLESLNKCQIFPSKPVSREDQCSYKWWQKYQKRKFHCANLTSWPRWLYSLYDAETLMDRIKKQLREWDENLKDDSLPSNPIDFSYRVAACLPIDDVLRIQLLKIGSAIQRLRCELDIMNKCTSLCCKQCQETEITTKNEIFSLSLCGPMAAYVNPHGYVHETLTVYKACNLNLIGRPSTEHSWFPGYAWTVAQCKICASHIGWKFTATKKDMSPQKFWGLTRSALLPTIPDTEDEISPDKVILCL

Row | SMILES | GI50 (HCC827) | Activity [1] | also measured
1 | COc1cc2ncnc(Nc3ccc(F)c(Cl)c3)c2cc1OCCCN1CCN(C(=O)CCNC(=O)C[C@H](NC(=O)[C@@H]2C[C@@H](O)CN2C(=O)[C@@H](NC(=O)C2(F)CC2)C(C)(C)C)c2ccc(-c3scnc3C)cc2)CC1 | 1020 nM |  | 
2 | COc1cc2ncnc(Nc3ccc(F)c(Cl)c3)c2cc1OCCCN1CCN(C(=O)CCCCCNC(=O)C[C@H](NC(=O)[C@@H]2C[C@@H](O)CN2C(=O)[C@@H](c2cc(C)no2)C(C)C)c2ccc(-c3scnc3C)cc2)CC1 | 790 nM | Active | 
3 | COc1cc2ncnc(Nc3ccc(F)c(Cl)c3)c2cc1OCCCN1CCN(CCC(=O)NCCCCCCCCOc2cccc3c2C(=O)N(C2CCC(=O)NC2=O)C3)CC1 (stereo unspecified) | 660 nM |  | Activity (OVCAR-8): Active; Activity (NCI-H1299): Active
4 | COc1cc2ncnc(Nc3ccc(F)c(Cl)c3)c2cc1OCCCN1CCN(C(=O)CCOCCOCCOCCOCCNc2ccc3c(c2)C(=O)N(C2CCC(=O)NC2=O)C3=O)CC1 (stereo unspecified) | 930 nM |  | 
5 | COc1cc2ncnc(Nc3ccc(F)c(Cl)c3)c2cc1OCCCN1CCN(CCC(=O)NCCCCCCCCNc2ccc3c(c2)C(=O)N(C2CCC(=O)NC2=O)C3=O)CC1 (stereo unspecified) |  |  | Activity [2]: Active; Activity [3]: Active
6 | COc1cc2ncnc(Nc3ccc(F)c(Cl)c3)c2cc1OCCCN1CCN(C(=O)CCOCCOCCOCCOCCOCCNc2ccc3c(c2)C(=O)N(C2CCC(=O)N(C)C2=O)C3=O)CC1 (stereo unspecified) |  |  | Kd [4]: 6.4 nM; Kd [5]: 2.9 nM
7 | COc1cc2ncnc(Nc3ccc(F)c(Cl)c3)c2cc1OCCCN1CCN(C(=O)C[C@H](NC(=O)[C@@H]2C[C@@H](O)CN2C(=O)[C@@H](c2cc(C)no2)C(C)C)c2ccc(-c3scnc3C)cc2)CC1 | 730 nM |  | 
8 | COc1cc2ncnc(Nc3ccc(F)c(Cl)c3)c2cc1OCCCN1CCN(C(=O)CCNC(=O)C[C@H](NC(=O)[C@@H]2C[C@@H](O)CN2C(=O)[C@@H](c2cc(C)no2)C(C)C)c2ccc(-c3scnc3C)cc2)CC1 | 780 nM | Active | 
9 | COc1cc2ncnc(Nc3ccc(F)c(Cl)c3)c2cc1OCCCN1CCN(C(=O)CCCCCCCCCNC(=O)C[C@H](NC(=O)[C@@H]2C[C@@H](O)CN2C(=O)[C@@H](c2cc(C)no2)C(C)C)c2ccc(-c3scnc3C)cc2)CC1 | 590 nM | Active | 
10 | Cc1ncsc1-c1ccc(CNC(=O)[C@@H]2C[C@@H](O)CN2C(=O)[C@@H](NC(=O)CCCCCCCCCCn2cc(COc3cc4ncnc(Nc5ccc(F)c(Cl)c5)c4cc3NC(=O)/C=C/CN3CCCCC3)nn2)C(C)(C)C)cc1 |  |  | DC50 [6]: 3.6 nM
11 | COc1cc2ncnc(Nc3ccc(F)c(Cl)c3)c2cc1OCCCN1CCN(C(=O)CCCCCCCCNC(=O)C[C@H](NC(=O)[C@@H]2C[C@@H](O)CN2C(=O)[C@@H](c2cc(C)no2)C(C)C)c2ccc(-c3scnc3C)cc2)CC1 | 460 nM | Active | 
12 | COc1cc2ncnc(Nc3ccc(F)c(Cl)c3)c2cc1OCCCN1CCN(C(=O)CCCCCCCCCC(=O)N[C@H](C(=O)N2C[C@H](O)C[C@H]2C(=O)NCc2ccc(-c3scnc3C)cc2)C(C)(C)C)CC1 | 230 nM |  | Activity (OVCAR-8): Active; Activity (NCI-H1299): Active
13 | COc1cc2ncnc(Nc3ccc(F)c(Cl)c3)c2cc1OCCCN1CCN(C(=O)CNC(=O)C[C@H](NC(=O)[C@@H]2C[C@@H](O)CN2C(=O)[C@@H](c2cc(C)no2)C(C)C)c2ccc(-c3scnc3C)cc2)CC1 | 710 nM | Active | 
14 | Cc1ncsc1-c1ccc(CNC(=O)[C@@H]2C[C@@H](O)CN2C(=O)[C@@H](NC(=O)COCCOCCOc2ccc(-c3ccc4ncnc(Nc5ccc(OCc6cccc(F)c6)c(Cl)c5)c4c3)cc2)C(C)(C)C)cc1 |  |  | DC50 [7]: 39 nM
15 | COc1cc2ncnc(Nc3ccc(F)c(Cl)c3)c2cc1OCCCN1CCN(C(=O)CCCCCCCCCCNC(=O)C[C@H](NC(=O)[C@@H]2C[C@@H](O)CN2C(=O)[C@@H](c2cc(C)no2)C(C)C)c2ccc(-c3scnc3C)cc2)CC1 | 250 nM |  | Activity (OVCAR-8): Active; Activity (NCI-H1299): Active
16 | COc1cc2ncnc(Nc3ccc(F)c(Cl)c3)c2cc1OCCCN1CCN(C(=O)CCCNC(=O)C[C@H](NC(=O)[C@@H]2C[C@@H](O)CN2C(=O)[C@@H](c2cc(C)no2)C(C)C)c2ccc(-c3scnc3C)cc2)CC1 | 880 nM | Active | 
17 | COc1cc2ncnc(Nc3ccc(F)c(Cl)c3)c2cc1OCCCN1CCN(C(=O)CCCCCCCNC(=O)C[C@H](NC(=O)[C@@H]2C[C@@H](O)CN2C(=O)[C@@H](c2cc(C)no2)C(C)C)c2ccc(-c3scnc3C)cc2)CC1 | 610 nM | Active | 
18 | COc1cc2ncnc(Nc3ccc(F)c(Cl)c3)c2cc1OCCCN1CCN(C(=O)CCCCNC(=O)C[C@H](NC(=O)[C@@H]2C[C@@H](O)CN2C(=O)[C@@H](c2cc(C)no2)C(C)C)c2ccc(-c3scnc3C)cc2)CC1 | 770 nM |  | 
19 | COc1cc2ncnc(Nc3ccc(F)c(Cl)c3)c2cc1OCCCN1CCN(C(=O)CCOCCOCCOCCOCCOCCNc2ccc3c(c2)C(=O)N(C2CCC(=O)NC2=O)C3=O)CC1 (stereo unspecified) | 870 nM |  | Activity (OVCAR-8): Active; Activity (NCI-H1299): Active

Reference: ChEMBL document CHEMBL5131542, “Exploring Degradation of Mutant and Wild-Type Epidermal Growth Factor Receptors Induced by Proteolysis-Targeting Chimeras” (J Med Chem, 2022)
